Test results reported in US20110217300A1, “Quinazolinone Compounds and Methods of Use Thereof” (priority 2007, published 2011).
Read-outs that look alike come from different tables or passages of the source.

What was measured:
A549 = experiment: MTS cell viability assay; type: cell-based; conditions: Homo sapiens; A549 non small cell lung, 72 hours; read-out: MTS NCI A549 GI50
Description: Two human cancer cell lines were assayed (see, Table 1). Cells were maintained at 37° C. and 5% CO2 in DMEM media (4.5 g/L glucose) supplemented with 10% heat-inactivated FBS, 10 mM L-glutamine, and 10 mM Hepes pH 7.5. Briefly, cells were seeded in 96-well plates as set forth in Table 1 and incubated for 16-24 hours. Candidate compounds were serially diluted in DMSO, further diluted in cell culture media, and then added to cells (final DMSO concentration of 0.33%). Cells were incubated in the presence of candidate compound for 72 hours. […] The Compound Numbers in Table 2 correspond to the numbers listed parenthetically in the Example titles.

NCI-H460 = experiment: MTS cell viability assay; type: cell-based, human; conditions: Homo sapiens, NCI-H460, 72 h
Description: Cell viability was determined by measuring the activity of dehydrogenase enzymes in metabolically active cells using a tetrazolium compound, MTS. The assay was performed as described in Promega Technical Bulletin No. 169 (CellTiter 96 Aqueous Non-Radioactive Cell Proliferation Assay). Two human cancer cell lines were assayed (see, Table 1). Cells were maintained at 37° C. and 5% CO2 in DMEM media (4.5 g/L glucose) supplemented with 10% heat-inactivated FBS, 10 mM L-glutamine, and 10 mM Hepes pH 7.5. Briefly, cells were seeded in 96-well plates as set forth in Table 1 and incubated for 16-24 hours. Candidate compounds were serially diluted in DMSO, further diluted in cell culture media, and then added to cells (final DMSO concentration of 0.33%). Cells were incubated in the presence of candidate compound for 72 hours. MTS stock solution (MTS 2 gm/L, PMS […] in PBS) was added to the cells (final concentration MTS […] and PMS 7.67 mg/L) and incubated for 4 hours. SDS was added to a final concentration of 1.4% and absorbance at 490 nm was measured within two hours using a plate reader. […] GI50 values were given in Table 2 for the compounds listed. The Compound Numbers in Table 2 correspond to the numbers listed parenthetically in the Example titles. Where multiple measurements were made by different technicians, both values are given.
Cell viability was determined for N-(3-amino-propyl)-3-chloro-N—[(R)-1-(7-chloro-4-oxo-3-phenylamino-3,4-dihydro-quinazolin-2-yl)-but-3-ynyl]-2-fluoro-benzamide (compound I of Table 2). The cell viability assay of Example 105 was used. GI50 was determined using a variety of cell lines. Cells were plated at 100-5000 cells per well. At least 2 replicates were performed. Where multiple measurements were made by different technicians, both values are given.

HsEg5 = molecular target: T1, HsEg5 (Homo sapiens, UniProt P52732); experiment: Fluorescence detection of HsEg5 ATPase activity (ADP Quest, automated); type: biochemical
T1 sequence (P52732 18-359 limits assumed): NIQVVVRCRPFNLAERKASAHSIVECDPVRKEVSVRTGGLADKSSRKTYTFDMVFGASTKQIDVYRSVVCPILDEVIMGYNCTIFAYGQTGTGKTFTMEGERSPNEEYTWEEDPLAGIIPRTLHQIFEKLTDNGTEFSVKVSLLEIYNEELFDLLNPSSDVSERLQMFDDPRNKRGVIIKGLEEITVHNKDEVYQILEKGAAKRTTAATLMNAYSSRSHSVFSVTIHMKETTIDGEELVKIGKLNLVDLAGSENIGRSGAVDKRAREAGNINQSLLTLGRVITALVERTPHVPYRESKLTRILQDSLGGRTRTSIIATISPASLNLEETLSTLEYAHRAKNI
Description: Purified HsEg5 motor fragment was activated by mixture with preformed MT polymer (Cytoskeleton, Denver, Colo.) at room temperature for 20 minutes. MT activated ATPase activity was measured using ADP Quest (DiscoverX, Fremont, Calif.) in which a coupled-enzyme assay can translate accumulation of ADP into detectable resorufin signal (FIG. 1A). Fluorescence was measured at λEx=535 nm and λEm=590 nm on a Wallac Victor 2 plate reader (Perkin-Elmer Life Sciences, Boston, Mass.). Reagent A and B from ADP Quest kit were aliquoted and frozen in −20° C. before use. A standard curve was determined using the provided ADP reagent in the reaction buffer that consisted of 50 mM Pipes (pH7.0), 5.0 mM MgCl2, 20 μM paclitaxel and […]. The same buffer was used for Km determination with HsEg5 concentration of 10 nM.
For inhibitor screening, 4 μL of compounds were incubated with 10 μL of MT-activated HsEg5 such that the final concentrations for compound range from 100 μM to 5 nM (1 to 3 serial dilutions, final concentration) and final concentration for HsEg5 is 10 nM. The mixture was incubated at room temperature for 10 minutes with mild shaking. The screening assay contained 0.3% DMSO in all reaction wells. We used wells containing only DMSO as negative controls and wells without ATP as background. Addition of 6 μL ATP (final concentration of 20 μM) initiated the ATP hydrolysis reaction. The 20 μL-reaction was allowed to proceed at room temperature for 10 minutes before addition of 10 μL of reagent A and 20 μL of reagent B. After 20-minute development at room temperature, the fluorescence was measured and data analysis was performed using GraphPad Prism version 3.0 (GraphPad Software, San Diego, Calif.)
For the purpose of high-throughput screening, we automated the fluorescence assay using a Sciclone ALH3000 (Caliper Life Sciences, Hopkinton, Mass.) and Multidrop 384 (Thermo Electron Corp, Waltham, Mass.). First, compound dilution plates for screening (at 10 μM or 1 μM) and ICso determination (10 data points from 100 μM to 5 nM) were made in Corning polypropylene V-bottom 96-well plates. In both cases, the 1st and 7th column contained background (No ATP addition) and negative control (DMSO only). For screening compounds at 10 μM or 1 μM, […] of each compound at 50 μM or 5 μM were used in a 20 μL assay reaction. For IC50 determination, the mother compound plate contained 24 μL of tested compound at stock concentration of 30 mM. 6 μL of each test compound in 30 mM was added to each well in the column 2 and followed by 1:3 serial dilutions in DMSO with the Sciclone ALH3000. 234 μL of assay buffer was then added using a Multidrop 384. Then 4 μL of diluted compounds was used in 20 μL-reaction. The final concentration was a 1:300 dilution of the original stock. Second, a reagent source plate was prepared with three rows designated to MT-activated HsEg5, Reagent A and Reagent B respectively. MTs were diluted with assay buffer and polymerized at room temperature for 10 minutes. Just before use, HsEg5 protein was thawed on ice and activated by addition of MT polymers at room temperature for 20 minutes. HsEg5/MT was then added to Row A of the reagent source plate. The final assay concentration was 10 nM HsEg5 and 500 nM MTs. Reagent A and B were stored at −20° C. and thawed at room temperature followed by transferring to rows B & C of the reagent source plate. Third, ATP substrate plate was prepared by transferring 80 μM ATP solution to each well of a V-shape 96-well plate except the wells in the first row where assay buffer was added instead to have no-ATP blanks. The final concentration for ATP in the assay was 20 μM.
The assay was programmed on Sciclone ALH3000 with the following procedures: 1) Addition of 4 μL compounds to the assay plate, followed by addition of 10 μL of MT-activated HsEg5. […]

[1] = read-out: MTS NCI H460 GI50, NCI-H460 non small cell lung, 72 hours

Compound	GI50 (A549) [µM]	GI50 (NCI-H460; read-out: MTS NCI H460 GI50) [µM]	IC50 (HsEg5) [µM]	GI50 (NCI-H460; [1]) [µM]
CCC(c1nc2cc(Cl)ccc2c(=O)n1Nc1cccc(F)c1)N(CCCN)C(=O)c1ccc(C)cc1 (stereo not drawn) [Compound 24, N-(3-Aminopropyl)-N-(1-{7-chloro-3-[(3-fluorophenyl)amino]-4-oxo-3,4-dihydroquinazolin-2-yl}propyl)-4-methylbenzamide]	1.79	1.09	1.05	
CC[C@H](c1nc2cc(Cl)ccc2c(=O)n1Nc1ccccc1)N(CCCN)S(=O)(=O)c1c(C)nn(C)c1C [Compound 33, N-(3-Aminopropyl)-N-[(1R)-1-(3-anilino-7-chloro-4-oxo-3,4-dihydroquinazolin-2-yl)propyl]-1,3,5-trimethyl-1H-pyrazole-4-sulfonamide]		10.4	4.22	
NCCCN(C(=O)c1ccc(F)cc1)C(Cc1cccs1)c1nc2cc(Cl)ccc2c(=O)n1Nc1ccccc1 (stereo not drawn) [Compound 51, N-(3-Aminopropyl)-N-[1-(3-anilino-7-chloro-4-oxo-3,4-dihydroquinazolin-2-yl)-2-(2-thienyl)ethyl]-4-fluorobenzamide]	4.45	5.38	2.8	
CC(C)C(c1nc2cc(Cl)ccc2c(=O)n1Nc1ccccc1)N(CCCN)C(=O)c1ccc2ccccc2n1 (stereo not drawn) [Compound 47, N-(3-Aminopropyl)-N-[1-(3-anilino-7-chloro-4-oxo-3,4-dihydroquinazolin-2-yl)-2-methylpropyl]quinoline-2-carboxamide]	4.09	2.7	3.23	
NCCCN(C(=O)c1ccc(Br)cc1)C(Cc1cccs1)c1nc2cc(Cl)ccc2c(=O)n1Nc1ccccc1 (stereo not drawn) [Compound 48, N-(3-Aminopropyl)-N-[1-(3-anilino-7-chloro-4-oxo-3,4-dihydroquinazolin-2-yl)-2-(2-thienyl)ethyl]-4-bromobenzamide]	4.93	4.36	2.57	
CCC(c1nc2cc(Cl)ccc2c(=O)n1Nc1ccccc1)N(CCN)C(=O)c1ccc(C)cc1 (stereo not drawn) [Compound 61, N-(2-Aminoethyl)-N-[1-(3-anilino-7-chloro-4-oxo-3,4-dihydroquinazolin-2-yl)propyl]-4-methylbenzamide]	14.2	12.5	3.89	
CC(c1nc2cc(Cl)ccc2c(=O)n1Nc1ccccc1)N(CCCN)C(=O)c1ccc(Cl)c(Cl)c1 (stereo not drawn) [Compound 41, N-(3-Aminopropyl)-N-[1-(3-anilino-7-chloro-4-oxo-3,4-dihydroquinazolin-2-yl)ethyl]-3,4-dichlorobenzamide]	5.67	6.28	3.37	
CC(C)(C)CC(c1nc2cc(Cl)ccc2c(=O)n1Nc1ccccc1)N(CCCN)C(=O)c1ccc(Br)cc1 (stereo not drawn) [Compound 58, N-(3-Aminopropyl)-N-[1-(3-anilino-7-chloro-4-oxo-3,4-dihydroquinazolin-2-yl)-3,3-dimethylbutyl]-4-bromobenzamide]	5.88	5.55	3.69	
CCC(c1nc2cc(Cl)ccc2c(=O)n1OCc1ccccc1)N(CCCN)C(=O)c1ccc(C)cc1 (stereo not drawn) [Compound 32, N-(3-Aminopropyl)-N-{1-[3-(benzyloxy)-7-chloro-4-oxo-3,4-dihydroquinazolin-2-yl]propyl}-4-methylbenzamide]	1.87	0.956	1.39	
CSCCC(c1nc2cc(Cl)ccc2c(=O)n1Nc1ccccc1)N(CCCN)C(=O)c1cccc(Cl)c1F (stereo not drawn) [Compound 38, N-(3-Aminopropyl)-N-[1-(3-anilino-7-chloro-4-oxo-3,4-dihydroquinazolin-2-yl)-3-(methylthio)propyl]-3-chloro-2-fluorobenzamide]			4.59	3.59
CC[C@H](c1nc2cc(Cl)ccc2c(=O)n1Nc1ccccc1)N(CCCN)S(=O)(=O)c1cccc(F)c1 [Compound 31, N-(3-Aminopropyl)-N-[(1R)-1-(3-anilino-7-chloro-4-oxo-3,4-dihydroquinazolin-2-yl)propyl]-3-fluorobenzenesulfonamide]	10.8		1.43	
CCCCC(c1nc2cc(Cl)ccc2c(=O)n1Nc1ccccc1)N(CCCN)C(=O)c1ccc(C)cc1 (stereo not drawn) [Compound 59, N-(3-Aminopropyl)-N-[1-(3-anilino-7-chloro-4-oxo-3,4-dihydroquinazolin-2-yl)pentyl]-4-methylbenzamide]		4.24	52.3	
Cc1ccc(C(=O)N(CCCN)C(c2nc3cc(Cl)ccc3c(=O)n2Nc2ccccc2)C(C)C)cc1F (stereo not drawn) [Compound 46, N-(3-Aminopropyl)-N-[1-(3-anilino-7-chloro-4-oxo-3,4-dihydroquinazolin-2-yl)-2-methylpropyl]-3-fluoro-4-methylbenzamide]			0.246	0.678
CCC(c1nc2cc(Cl)ccc2c(=O)n1Nc1ccccc1)N(CCN)C(=O)c1ccc(Cl)cc1 (stereo not drawn) [Compound 60, N-(2-Aminoethyl)-N-[1-(3-anilino-7-chloro-4-oxo-3,4-dihydroquinazolin-2-yl)propyl]-4-chlorobenzamide]		10	3.99	
